The source of these data is PubChem BioAssay AID1322 (NMMLSC, 2008).

The target in this experiment is Bcl-2-like protein 1 (Homo sapiens) (UniProt Q07817). Description: Bcl-XL binding to Bim peptide disruption – biochemical, multiplexed, bead flow cytometry, human Bcl-XL, dose response (AID 1322). As to inhibition: test concentration not given here. To be noted: Bead-based flow cytometry, MCF; for inhibition: active compounds read high. For orientation: A flow cytometer gives signals particle by particle.

Calls of active or inactive are those of the source. No rule for the calls is given here.

Sequence of Bcl-2-like protein 1 (Homo sapiens) (Q07817 whole entry, looked up): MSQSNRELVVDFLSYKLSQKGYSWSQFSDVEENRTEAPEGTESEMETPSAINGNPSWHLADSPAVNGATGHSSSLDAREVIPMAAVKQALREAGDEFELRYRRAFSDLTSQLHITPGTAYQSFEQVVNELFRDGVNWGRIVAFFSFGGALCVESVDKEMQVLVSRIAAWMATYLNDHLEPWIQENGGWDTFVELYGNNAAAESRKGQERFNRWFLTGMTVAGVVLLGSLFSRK

With `O=C(CCc1ccccc1)N1CCN(c2ccccn2)CC1`, the outcome was inactive.
As for `O=C(c1cnccn1)N1CCN(c2ccccc2F)CC1`, the inhibition result was “inactive”.
As to `CN(Cc1ccccc1)C(=O)c1[nH]cnc1C(=O)N[C@@H](CCCCNC(=O)OC(C)(C)C)C(=O)OC(C)(C)C`, the inhibition entry is “inactive”.
On the same count and under the same terms, as for `CCN(CC)c1ccc(NC(=O)COc2ccccc2C#N)cc1S(=O)(=O)Nc1ccccc1OC`, the entry is “inactive”; as for `CCOC(=O)c1cccc(Nc2ncnc3ccccc23)c1`, “inactive”; as for `Cc1cccc(/C=N/N(CCO)C2=NS(=O)(=O)c3ccccc32)c1`, “inactive”.
In the case of `COc1ccc(-c2nnc(SCC(=O)Nc3nc4ccccc4s3)n2C)cc1`, the inhibition result is “inactive”.
As for `COc1ccc(N2C(=O)C(Cl)=C(Nc3c(C)n(C)n(-c4ccccc4)c3=O)C2=O)cc1`, the inhibition result is “inactive”.
For `Cc1cccc(Nc2nc(-c3ccncc3)cs2)c1`, the inhibition result was “inactive”.
On to `CNC(=O)/C(C#N)=C/c1c(N(Cc2ccccc2)Cc2ccccc2)nc2c(C)cccn2c1=O`, for which the inhibition result was “inactive”.
The same measure, in the same setting: then `Cn1c(=O)c2c(nc(NCCO)n2CCc2ccccc2)n(C)c1=O`, with “inactive”; and `Cc1ccc2c(c1)c(C)c(C)n2CC(O)Cn1nc(C)c(Br)c1C` (stereo not given), with “inactive”; and `O=C(CSc1nnc(-c2ccco2)n1Cc1ccccc1)c1ccccc1`, with “inactive”.
As for `Cc1cccc(-n2c(-c3ccncc3)n[nH]c2=S)c1`, the inhibition result is “inactive”.
For `COc1cc(N=c2ssnc2Cl)c(OC)cc1Cl`, the inhibition entry is “inactive”.
On to `CC1N(C)c2cccc3cccc(c23)N1C`, for which the inhibition result was “inactive”.
`Cn1c(N)c(C(=O)COC(=O)c2cncc(Br)c2)c(=O)n(C)c1=O`: the outcome was inactive.
For `CN(C)C(=O)N1CCC(C(=O)NC2CCCCCCC2)CC1`, the inhibition entry is “inactive”.
Turning to `CN(C)c1ccc(C(=O)/C=C/c2ccc(Br)cc2)cc1`, the inhibition result is “inactive”.
With `Cc1cc(N/C(=N/S(=O)(=O)c2cc(F)ccc2F)c2ccccc2)n(-c2ccccc2)n1`, the outcome was inactive.
In the case of `CCN(CC)c1ccc(NC(=O)COc2ccccc2C)cc1S(=O)(=O)Nc1ccccc1OC`, the inhibition entry is “inactive”.
Regarding `Nc1cccc(-c2cn3cccnc3n2)c1`, the result was inactive.
With `Cc1ccc(-c2cc(-c3ccccc3)c(C#N)c(N)n2)o1`, the inhibition result was “inactive”.
For the compound `CN(C)S(=O)(=O)N(CC(=O)Nc1ccccc1C(F)(F)F)c1ccccc1`, the inhibition result is “inactive”.
`COc1cc(/C=N/NC(=O)c2ccc([N+](=O)[O-])cc2Cl)cc(Br)c1O`: the inhibition entry was “inactive”.
`CCOC(=O)C1=C(Cc2ccc(OC)cc2)C(=O)c2ccccc2C1=O`: the inhibition result is “inactive”.
Regarding `CCOC(=O)c1c(NC(C)=O)sc2c(O)c(Br)cc(Br)c12`, the inhibition result was “inactive”.
`COc1ccccc1N(C)S(=O)(=O)c1ccc(C(=O)OCC(N)=O)cc1`: the result was inactive.
Turning to `N#Cc1cccc(N=c2ssnc2Cl)c1`, the inhibition result is “inactive”.
Regarding `Cc1[nH]n(C(N)=S)c(=O)c1N=Nc1ccc(S(=O)(=O)N2CCCCCC2)cc1`, the inhibition entry is “inactive”.
`CCC(=O)OCCNc1cc(Sc2nccn2C)c2nonc2c1[N+](=O)[O-]`: the outcome was inactive.
For `O=C(Nc1n[nH]c(C(F)(F)F)n1)C1CC1`, the inhibition result is “inactive”.
Turning to `CC1Nc2ccccc2C(=O)N1NS(=O)(=O)c1ccccc1` (stereo not given), the result was inactive.
With `Fc1ccc(Cn2nnnc2C(c2ccc(Cl)cc2)N2CCSCC2)cc1` (stereo not given), the inhibition entry was “inactive”.
Same read-out and setting: then `O=C(N/N=C/c1ccc(O)c(O)c1O)/C(=C/c1ccc([N+](=O)[O-])cc1)NC(=O)c1ccccc1`, with “inactive”; and `COc1ccc(CC(=O)Nc2ccc(-c3nc4cc(C)ccc4o3)c(O)c2)cc1OC`, with “inactive”.
For the compound `CCOC(=O)/C(=C\c1ccc(Cl)cc1)c1nc2sc(C)c(C)c2c(=O)[nH]1`, the inhibition result is “inactive”.
For `O=C(c1ccccc1NS(=O)(=O)c1ccc(Br)s1)N1CCCC1`, the inhibition result was “inactive”.
On to `Cc1ccc(-c2cc(C(=O)N3CCN(c4ncccn4)CC3)c3cc(Br)ccc3n2)o1`, for which the inhibition entry was “inactive”.
The same measure, in the same setting: then `CCN1CCN(c2ccc(NC(=O)c3cccc4ncccc34)cc2)CC1`, with “inactive”.
Still for that read-out and setting: then `CCN(C(=O)COC(=O)c1cc(-c2ccc(C)o2)nc2ccccc12)C1CCS(=O)(=O)C1` (stereo not given), with “inactive”; and `CCCC1(C(=O)OCC)NC(c2cc(OC)c(OC)c(OC)c2)C2C(=O)N(CC)C(=O)C21` (stereo not given), with “inactive”.
Regarding `CCOc1ccc(-n2cc(-c3ccc(OC)c(OC)c3)[nH]c2=S)cc1`, the outcome was inactive.
In the case of `O=C(NCc1ccccc1)C(=O)Nc1nc(C23CC4CC(CC(C4)C2)C3)cs1`, the inhibition result is “inactive”.
Regarding `COc1ccc(CC(=O)Nc2ccccc2Oc2ccccc2)cc1`, the result was inactive.
Take `CN1C(=O)/C(=C/c2ccc(-c3ccccc3[N+](=O)[O-])o2)SC1=Nc1ccc(Cl)c(C(=O)O)c1`: the inhibition entry is “inactive”.
On the same count and under the same terms, as for `CC(NC(=O)Nc1ccccn1)N1C(=O)C2C3C=CC(C3)C2C1=O` (stereo not given), the entry is “inactive”; as for `CCNC(=S)Nc1ccc(OCC)cc1`, “inactive”.
Turning to `COc1cc(CNc2ccc(N3CCCC3)cc2)cc(Cl)c1OC`, the inhibition entry was “inactive”.
For the compound `c1ccc(-c2nc(N3CCCCC3)nc3ccccc23)cc1`, the inhibition result is “inactive”.
On to `Cn1c(CCNC(=O)C2CCCCC2)nc2cc(NC(=O)c3cccs3)ccc21`, for which the outcome was inactive.
Regarding `CCc1cccc(CC)c1NC(=S)N1CCn2cccc2C1c1cccnc1` (stereo not given), the outcome was inactive.
On to `COc1ccc(/C=C(/C(=O)c2cccs2)N2C=CC=CC2=C(C#N)C#N)cc1`, for which the inhibition entry was “inactive”.
On to `COc1ccc(NC(=O)c2ccc3c(c2)NC(=O)CS3)cc1S(=O)(=O)Nc1ccc(Br)cc1`, for which the inhibition entry was “inactive”.
In the case of `CCOC(=O)c1nn(-c2ccccc2)c(C#N)c1N`, the result was inactive.
For `COc1cc(/C=C2\S/C(=N/S(=O)(=O)c3ccc(C)cc3)NC2=O)c([N+](=O)[O-])cc1OC`, the inhibition entry was “inactive”.
On to `CCOCCOc1nc2c(c(=O)n(C)c(=O)n2C)n1CCc1ccccc1`, for which the inhibition result was “inactive”.
`Cc1ccnc(NS(=O)(=O)c2ccc(NC(=O)c3c(-c4ccccc4Cl)noc3C)cc2)n1`: the inhibition result is “inactive”.
Regarding `COc1ccc(N2C(=O)/C(=C/c3cccs3)NC2=S)cc1`, the inhibition entry was “inactive”.
In the case of `COc1cc(CNc2ccc3[nH]c(=O)[nH]c3c2)cc(Br)c1OCC(=O)NC(C)(C)C`, the inhibition result is “inactive”.
For the compound `O=C1C(Cl)=C(Nc2ccccc2O)C(=O)N1c1ccccc1`, the inhibition entry is “inactive”.
Take `CCOc1cc(S(=O)(=O)N2CCCCC2)ccc1F`: the inhibition entry is “inactive”.
On to `COc1cc(/C=C2/NC(=O)N(Cc3ccccc3F)C2=O)ccc1O`, for which the result was inactive.
For the compound `C=CCn1c(C)cc(-c2csc(NC)n2)c1C`, the inhibition result was “inactive”.
In the case of `C/C(=N\NC(=O)Cn1nc(C)c([N+](=O)[O-])c1C)c1ccc(O)cc1`, the inhibition result was “inactive”.
As for `CCN1/C(=C\c2ccc3cc(C)ccc3[n+]2CC)Sc2cc(C)c(C)cc21`, the outcome was inactive.
On to `CCC(=O)OCCNc1cc(Sc2nc3ccccc3[nH]2)c2nonc2c1[N+](=O)[O-]`, for which the inhibition entry is “inactive”.
Consider `O=C(Oc1ccc(-c2cnc3ccccc3n2)cc1)c1cccc([N+](=O)[O-])c1`, for which the inhibition result was “inactive”.
Still for that read-out and setting: then `CC(C)CN1C(=O)/C(=C/c2ccco2)NC1=S`, with “inactive”; and `Cc1cc(C)c(S(=O)(=O)/N=C2/C=C(SCC(=O)O)C(=O)c3ccccc32)cc1C`, with “inactive”.
As to `c1csc(C2=Nn3c(nnc3-c3ccncc3)SC2)c1`, the inhibition result was “inactive”.
Still for that read-out and setting: as for `CC(C)=C1C(=O)NN(c2ccc(C)c(Cl)c2)C1=O`, the entry is “inactive”; as for `O=C(CCl)Nc1cccc2ncccc12`, “inactive”; as for `COc1cc(NC(=S)NC(=O)c2cc(C)cc(C)c2)ccc1NC(=O)c1cccs1`, “inactive”.
In the case of `COc1cccc(/C=N/Nc2nn3cnnc3c3ccccc23)c1`, the EC50 entry was “inactive”.
For the compound `COc1ccc(N2CCN(C(CNS(=O)(=O)c3ccc4c(c3)OCCO4)c3ccco3)CC2)cc1` (stereo not given), the outcome was inactive.
On to `Cc1[nH]c2ccccc2c1C(=O)COC(=O)c1c(-c2c(F)cccc2Cl)noc1C`, for which the inhibition result is “inactive”.
Consider `O=C(O)C1=C[C@H](C2CC2)C[C@H](OCCCCO)O1`, for which the inhibition result was “inactive”.
As to `Cc1cc(C)c(C)c(S(=O)(=O)N2CCN(CC(=O)NC(=O)NCc3ccccc3)CC2)c1C`, the inhibition entry was “inactive”.
On to `CC(C)(C)OC(=O)N1CCN(C(=O)[C@H](Cc2ccc(O)cc2)n2cc(CCO)nn2)CC1`, for which the inhibition entry is “inactive”.
In the case of `O=C(c1cccc(Br)c1)N1CCN(c2cnn(-c3ccccc3)c(=O)c2Cl)CC1`, the outcome was inactive.
With `COc1ccc(C(=S)N2CCCCCC2)cc1`, the inhibition result is “inactive”.
Regarding `CCN(CC)c1nc(N)nc(N(c2ccccc2)c2ccccc2)n1`, the inhibition entry was “inactive”.
On the same count and under the same terms, as for `Cc1ccc(-c2cc(-c3ccc(F)cc3)c(C#N)c(N)n2)o1`, the entry is “inactive”; as for `Cc1ccc(C(=O)N/N=C2/NC(=O)CC(C(=O)Nc3ccccc3)S2)cc1` (stereo not given), “inactive”.
As for `O=C(COc1ccccc1)N1CCN(c2ncnc3c2cnn3-c2ccccc2)CC1`, the inhibition result was “inactive”.
The same measure, in the same setting: as for `O=C(c1ccc(CNS(=O)(=O)c2ccc(Br)cc2)cc1)N1CCCC1`, the entry is “inactive”.
As for `Cc1ccc(/C=C/C2=Cc3c(sc(NC(=O)CSc4n[nH]c(N)n4)c3C#N)C(C)(C)C2)o1`, the inhibition result was “inactive”.
In the case of `COCCn1nnnc1CN(Cc1ccco1)Cc1cc2cc3c(cc2[nH]c1=O)OCO3`, the inhibition entry is “inactive”.
Consider `N#Cc1cc(-c2ccccc2)nn1-c1ccccc1`, for which the inhibition entry is “inactive”.
